Data reported in the supplement of paper PMC13380429.

Legend:
Details in all cases: 72 h
Caco-2 [1] = test: cell viability relative to DMSO; higher = less toxic
Calu-3 [2] = test: as above
HepG2 [3] = test: as above
U2OS [4] = test: as above
Vero E6 [5] = test: as above
Caco-2 [6] = test: relative viability EC50 (midpoint between 100% and the lowest measured viability); higher = less toxic
Calu-3 [7] = test: as above
HepG2 [8] = test: as above
U2OS [9] = test: as above
Vero E6 [10] = test: as above
Caco-2 [11] = test: drug sensitivity score (DSS) for viability; higher = more toxic; extreme values may be limits of the assay
Calu-3 [12] = test: as above
HepG2 [13] = test: as above
U2OS [14] = test: as above
Vero E6 [15] = test: as above

Compound	cell viability (Caco-2 [1]; 1 nM) [%]	cell viability (Caco-2 [1]; 10 nM) [%]	cell viability (Caco-2 [1]; 100 nM) [%]	cell viability (Caco-2 [1]; 1000 nM) [%]	cell viability (Caco-2 [1]; 10000 nM) [%]	cell viability (Calu-3 [2]; 1 nM) [%]	cell viability (Calu-3 [2]; 10 nM) [%]	cell viability (Calu-3 [2]; 100 nM) [%]	cell viability (Calu-3 [2]; 1000 nM) [%]	cell viability (Calu-3 [2]; 10000 nM) [%]	cell viability (HepG2 [3]; 1 nM) [%]	cell viability (HepG2 [3]; 10 nM) [%]	cell viability (HepG2 [3]; 100 nM) [%]	cell viability (HepG2 [3]; 1000 nM) [%]	cell viability (HepG2 [3]; 10000 nM) [%]	cell viability (U2OS [4]; 1 nM) [%]	cell viability (U2OS [4]; 10 nM) [%]	cell viability (U2OS [4]; 100 nM) [%]	cell viability (U2OS [4]; 1000 nM) [%]	cell viability (U2OS [4]; 10000 nM) [%]	cell viability (Vero E6 [5]; 1 nM) [%]	cell viability (Vero E6 [5]; 10 nM) [%]	cell viability (Vero E6 [5]; 100 nM) [%]	cell viability (Vero E6 [5]; 1000 nM) [%]	cell viability (Vero E6 [5]; 10000 nM) [%]	relative viability EC50 (Caco-2 [6]) [µM]	relative viability EC50 (Calu-3 [7]) [µM]	relative viability EC50 (HepG2 [8]) [µM]	relative viability EC50 (U2OS [9]) [µM]	relative viability EC50 (Vero E6 [10]) [µM]	drug sensitivity score (Caco-2 [11])	drug sensitivity score (Calu-3 [12])	drug sensitivity score (HepG2 [13])	drug sensitivity score (U2OS [14])	drug sensitivity score (Vero E6 [15])
C[C@H]1O[C@@H](Oc2c(-c3cc(O)c(O)c(O)c3)oc3cc(O)cc(O)c3c2=O)[C@@H](O)[C@@H](O)[C@@H]1O [myricitrin]	100	105	100	105	96	92.5	99.2	96.7	101	94.4	104	98.3	109	86.6	99.6	97.9	97.4	94.7	99.1	94.7	99.5	98.5	97.7	96.1	93.8	> 10	> 10	> 10	> 10	> 10	0	0	0	0	0
C=CCN1CC[C@]23c4c5ccc(O)c4O[C@H]2/C(=N/NC(=O)c2ccccc2)CC[C@@]3(O)[C@H]1C5 [naloxone-benzoylhydrazone]	91.7	93.8	101	94.7	112	95.4	95.8	89.4	103	112	101	99.5	102	96.4	101	100	101	97.4	103	105	97.9	102	102	97.2	107	> 10	> 10	> 10	> 10	> 10	0	0	0	0	0
NCC1CC(=O)N(Cc2ccccc2)C1 (stereo not given) [nebracetam]	87	91.8	84.4	97.8	99.7	99.7	96.3	93.1	94.4	107	109	108	92.8	96.6	98.5	97.4	104	95.7	100	104	94.5	93.6	97.8	91.4	108	> 10	> 10	> 10	> 10	> 10	0	0	0	0	0
CNC(=O)c1c(-c2ccc(F)cc2)oc2cc(N(CCO)S(C)(=O)=O)c(C3CC3)cc12 [nesbuvir]	94	101	95	99	101	108	107	99.9	110	103	97.3	90	103	92.2	107	93.3	102	96.4	99.9	102	98.4	97	98.6	93.6	103	> 10	> 10	> 10	> 10	> 10	0	0	0	0	0
